{"source": "patent US20220054494A1", "about": "“METHODS FOR TREATING BLADDER AND URETHRA DYSFUNCTION AND DISEASE” (University of Pittsburgh - Of the Commonwealth System of …, priority 2019, published 2022)", "key": {"bladder smooth muscle": {"test_system": "bladder smooth muscle", "experiment": "Transmission electron microscopy of bladder smooth muscle", "type": "in vivo, rat", "from_the_text": "Transmission electron microscopy (TEM): The other half of each urinary bladder from each group (young, aged, and aged+treatment) were fixed in cold 2.5% glutaraldehyde in 0.01 M PBS. The specimens were rinsed in PBS, post-fixed in 1% osmium tetroxide with 1% potassium ferricyanide, rinsed in PBS, dehydrated through a graded series of ethanol and propylene oxide, and embedded in POLY/BED® 812 (Luft formulations). Semi-thin (300 nm) sections were cut on a LEICA® Reichart Ultracut, stained with 0.5% toluidine blue in 1% sodium borate and examined under the light microscope. Ultrathin sections (65 nm) were stained with uranyl acetate and Reynold's lead citrate and examined on JEOL 1400 transmission electron microscope with a side mount AMT 2k digital camera (Advanced Microscopy Techniques, Danvers, Mass.).\n(§1) Transmission electron microscopy (TEM): The other half of each urinary bladder, proximal urethra, or external urethral sphincter from each group (young, aged, aged+8-AG treatment) was fixed in cold 2.5% glutaraldehyde in 0.01 M PBS. The specimens were rinsed in PBS, post-fixed in 1% osmium tetroxide with 1% potassium ferricyanide, rinsed in PBS, dehydrated through a graded series of ethanol and propylene oxide solutions, and embedded in POLY/BED® 812 (Luft formulations). Semi-thin (300 nm) sections were cut on a LEICA® Reichart Ultracut, stained with 0.5% Toluidine Blue in 1% sodium borate and examined under the light microscope. Ultrathin sections (65 nm) were stained with uranyl acetate as well as Reynold's lead citrate and examined on a JEOL 1400 transmission electron microscope with a side mount AMT 2k digital camera (Advanced Microscopy Techniques, Danvers, Mass.).\nas §1, with “Half” for “The other half”, “bladder” for “bladder, proximal urethra, or external urethral sphincter”, “borate,” for “borate”, “and” for “as well as”"}, "CYP-treated rats": {"test_system": "CYP-treated rats", "experiment": "Abdominal mechanical pain threshold (Von Frey) in CYP cystitis model", "type": "in vivo, rat", "conditions": "CYP (75 mg/kg i.p.) female Sprague Dawley rats; oral 8-AG 5 mg/kg for 1 week prior to CYP", "procedure": "Animals: Female Sprague Dawley rats were employed in this example (Charles River; Wilmington, Mass.). Three groups of animals were included. Group 1 received an i.p. injection of saline and was used as a control; groups 2 and 3 received an i.p. injection of cyclophosphamide (CYP, SIGMA-ALDRICH®, St Louis, Mo., day 0, 3, 6, sacrifice day 8, 75 mg/kg, i.p.) with group 3 treated with oral 8-AG (5 mg/kg/day; starting one week prior to CYP). CYP induced bladder inflammation and is a well-established pre-clinical model for BPS/IC.\nDetermination of mechanical pain threshold: Lower abdominal pain was evaluated using a mechanical hyperalgesia and allodynia test (Larid et al., Pain, 92:335-342, 2001; Minnet et al., PLoS One, 9:e104458, 2014). Briefly, animals were placed in individual chambers with a wire mesh floor and allowed to acclimate. This Von Frey test was performed in the lower abdomen and consists of delivering a constant pre-determined force with one of a series of Von Frey monofilaments (from 0.08 to 19.6 mN; Stoelting Co., Wood Dale, Ill., USA). Filaments were applied perpendicularly with enough strength to cause the monofilament to slightly bend. Each monofilament was tested five times, 5 s interval between each application. […]"}, "[1]": {"conditions": "aged Fisher 344 rats, 8-AG 5 mg kg/day via drinking water, 1 month"}, "[2]": {"conditions": "aged rats, oral 8-AG 5 mg/kg/day, 6 weeks"}}, "note": "“Also recorded” adds a separate entry of the source.", "data": [{"smiles": "Nc1nc2[nH]c(N)nc2c(=O)[nH]1", "note": "[8-AG, 8-Aminoguanine]", "values": [{"measurement": "detrusor smooth muscle morphology (separation and degeneration of cells)", "setting": "bladder smooth muscle; [1]", "value": "restored to a younger state; also recorded: restored to levels similar to the younger state"}, {"measurement": "swelling and disruption of smooth muscle mitochondria", "setting": "bladder smooth muscle; [1]", "value": "restored to a younger state; also recorded: restored to levels similar to the younger state"}, {"measurement": "bladder smooth muscle mitochondrial abnormalities", "setting": "bladder smooth muscle; aged rats, intravesical 100 μM 8-AG plus 10 μM DEA-NONOate, daily infusion 3-6 weeks", "value": "normalized; also recorded: restored"}, {"measurement": "detrusor smooth muscle morphology (structural anomalies)", "setting": "bladder smooth muscle; [2]", "value": "reversed; also recorded: restored to a younger state"}, {"measurement": "swelling and disruption of smooth muscle mitochondria", "setting": "bladder smooth muscle; [2]", "value": "reversed; also recorded: restored to a younger state"}, {"measurement": "abdominal mechanical pain threshold", "setting": "CYP-treated rats", "value": "returned to near control levels"}]}]}
